According to patent US20090221702A1, “COMPOUNDS” (priority 2005, published 2009):
Entries after “also recorded” stand apart in the source; their conditions may differ.

What was measured:
Format in all cases: cell-based
[1] = target: T1, PKB (Mus musculus, UniProt P31750); assay: Western blotting of the phospho-Akt content (FIG. 5); conditions: NIH3T3 cells, method as for FIG. 2
T1 construct: endogenous in cells; host or cells: NIH3T3
Procedure: (§1) In a typical method, NIH3T3 cells were grown in media (GibcoBRL) containing 10% NCS to near confluency in six well plates. The cells were starved using 0.5% serum for 2-3 days. The media was then removed and replaced with serum free media for 15 minutes. Subsequently, 1% NCS was added to reaction wells, and 0%, 1% and 10% NCS to control wells. After 20 minutes incubation, the compound was added, and the wells incubated for a further 15 minutes. Media was removed and sample buffer was added and the cells lysed, boiled, centrifuged.
(§2) Samples were subjected to gel electrophoresis by 10% SDS-PAGE and then Western blotted on to PVDF membrane (Biorad) according to standard protocols. Western blots were probed using primary antibodies against PKB purchased from New England Biolabs and secondary antibodies of goat anti-rabbit IgG coupled to horseradish peroxidase (Amersham). The membranes were then developed using a freshly prepared ECL solution according to standard protocols.
Western blotting of the phospho-Akt content was also monitored. The methodology used was the same as above.

[2] = test system: PKB; assay: Immunofluorescence microscopy with phospho-specific Ser473 PKB antibody in NIH 3T3 or Cos6 fibroblasts; conditions: for phosphorylation of PKB on S473 by compound alone: 10 min, starved Cos6 cells, without any serum
Procedure: We therefore tested the compound's effect on PKB S473 phosphorylation by immunofluorescence microscopy with a phospho-specific PKB antibody.
(§3) NIH 3T3 of Cos6 fibroblasts growing on PLL coated coverslips in DMEM containing 10% FCS were starved for 24 hours. Stimulation with c48/80 [10 μg/ml] was always carried out in the presence of 1% FCS for 10 min. Whereas cells growing in DMEM completely depleted of serum were used for experiments with cQ [15 μg/ml]. Where indicated, cells were pretreated with 100 μM LY294002 for 30 min or 500 nM RV001 for 15 min. After treatment cells were washed with PBS, fixed with 4% PFA and permeabilised with 0.25% Triton-X/PBS and washed extensively. After blocking in 1% BSA, cells were phalloidin stained and/or incubated with phospho-specific Ser473 PKB antibody (Cell Signalling) at 4° C. over night and a Fluorescein (FITC)—conjugated goat anti-mouse IgG (Jackson Immuno Research) at room temperature for 1 h. Nuclei were stained with Dapi. Coverslips were mounted on Mowiol containing slides and sealed before analysing on a Nikon Microscope.

[3] = test system: NIH3T3 fibroblasts; assay: MTT assay; conditions: 50 μM
Source text: However its inhibitory effects on stimulated cells were not as strong. The methods used were as for Example 2.

[4] = target: T1, PKB; assay: Western blot monitoring PKB modulation in NIH3T3 cells (FIG. 2); conditions: 1% NCS, various concentrations, 15 minutes
Procedure: PKB is a protein downstream effector of PI3K, and becomes phosphorylated on (residues required for its activity) in response to the activation of PI3K. Natal Calf Serum (NCS) is a stimulator of PI3K and thus subsequently results in PKB activation. Therefore the positive control used in experiments is 10% serum and a negative control used is provided with no serum at all.
as §1, §2

[5] = test system: Cos6 fibroblasts; assay: Phalloidin staining of F-actin / actin remodelling in starved Cos6 fibroblasts; conditions: for insulin-stimulated actin remodelling: 15 μg/ml cQ and 5 μg/ml insulin
Procedure: as §3

T1 sequence (P31750 whole entry): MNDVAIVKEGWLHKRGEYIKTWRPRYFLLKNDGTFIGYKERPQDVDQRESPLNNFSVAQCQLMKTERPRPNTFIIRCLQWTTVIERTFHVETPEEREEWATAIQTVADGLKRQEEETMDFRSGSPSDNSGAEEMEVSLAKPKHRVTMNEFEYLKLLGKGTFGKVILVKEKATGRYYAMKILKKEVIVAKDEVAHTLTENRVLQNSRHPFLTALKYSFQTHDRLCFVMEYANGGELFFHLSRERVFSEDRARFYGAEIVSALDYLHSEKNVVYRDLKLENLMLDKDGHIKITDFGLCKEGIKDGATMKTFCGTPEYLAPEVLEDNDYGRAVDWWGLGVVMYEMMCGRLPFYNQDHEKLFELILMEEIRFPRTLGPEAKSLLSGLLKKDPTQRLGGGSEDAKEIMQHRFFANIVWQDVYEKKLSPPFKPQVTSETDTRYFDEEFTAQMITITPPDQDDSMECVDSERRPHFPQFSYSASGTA

Compound | activation of PKB (phospho-Akt content, western blots, FIG. 5) [1] | Akt/PKB phosphorylation in starved cells ([2]; 1 μM, starved cells) | inhibitory effects on Akt/PKB phosphorylation in stimulated cells ([2]; 1 μM, stimulated cells, compared with 50 μM) | Akt/PKB phosphorylation in Insulin stimulated cells ([2]; 50 μM, Insulin stimulated cells) | response with PTEN inhibition (increased PI(3,4,5)P3 levels) ([2]; 50 μM, PTEN inhibition) | S473 phosphorylation with PI3-kinase inhibition ([2]; 50 μM, Wortmannin or LY294002) | Akt/PKB phosphorylation on S473 in starved cells ([2]; 50 μM, starved cells) | cytotoxicity (MTT assay) [3] | effect on PKB (phosphorylation of PKB, western blots, FIG. 2) [4] | PKB activation with PTEN inhibitor RV001 (increased PI(3,4,5)P3 levels) ([2]; 15 μg/ml cQ, 500 nM RV001 pretreatment, 0.2 μg/ml insulin, listed as cQ) | compound-induced PKB phosphorylation after PI3-kinase inhibition ([2]; 15 μg/ml cQ, 30 min preincubation with 100 μM LY294002, listed as cQ) | effect of pretreatment on activation of PKB by serum ([2]; 15 μg/ml, 10% FCS, starved cells) | phosphorylation of PKB on S473 by compound alone ([2]; 15 μg/ml) | phosphorylation of PKB on S473 by compound alone ([2]; 15 μg/ml, listed as cQ) | effect of serum on compound-induced PKB activation ([2]; increasing concentrations of serum) | insulin-stimulated actin remodelling ([5]; 10 min) | insulin-stimulated actin remodelling ([5]; 10 min, listed as cQ) | stress fibers in starved fibroblasts ([5]; 15 μg/ml, 10 min, starved Cos6) | cytoskeleton reorganisation, dependence on PI3-kinase ([5]; 15 μg/ml, preincubation with 100 μM LY294002 for 30 min, listed as cQ) | F-actin organisation after treatment ([5]; 15 μg/ml, starved Cos6)
Oc1ccc(CCCl)cc1Cc1cc(CCCl)ccc1O [Compound C, 3,3′-Methylenebis[1-(2-chloroethyl)-4-hydroxybenzene]] | can activate PKB | still activatory on its own | not as strong | inhibitory on Akt/PKB phosphorylation | inhibited the response | increase of phosphorylation at this site | activate Akt/PKB phosphorylation on S473 | cytotoxic effects | – | – | – | – | – | – | – | – | – | – | – | –
COc1c(CO)cc(C)cc1CO [Compound F, 2,6-Bis(hydroxymethyl)-4-anisole] | can activate PKB | – | – | – | – | – | – | – | activators | – | – | – | – | – | – | – | – | – | – | –
Oc1ccc(CCCl)cc1 [Compound Q] | can activate PKB | – | – | – | – | – | – | – | – | indirectly inhibits PKB activation after cQ challenge; also recorded: inhibited PI(3,4,5)P3 mediated PKB activation | strongly increased cQ induced PKB phosphorylation; also recorded: increased cQ induced PKB phosphorylation | completely abolished the activation of PKB by 10% FCS | induces phosphorylation of PKB | sufficient to induce phosphorylation of PKB on S473 residue | increasing concentrations of serum inhibit cQ induced PKB activation | inhibits insulin-stimulated actin remodelling | counteract insulin-stimulated actin remodelling; also recorded: interferes with insulin-stimulated stress fiber breakdown | induces the loss of stress fibers in starved fibroblasts | capable of reorganising the cytoskeleton independent of PI3-kinase | produces a disorganised cytoplasmic F-actin and an actin ring juxtaposed to the plasma membrane
